“Also recorded” adds a separate entry of the source.
Assays:
primary cortical neurons = experiment: Oxidative glutamate (homocysteate) toxicity in cortical neurons; assay type: cell-based, rat
Description: FIGS. 5A-5G. […] Because adaptoquin is a HIF PHD inhibitor that appears to work independent of HIF transcription factors, and because hemin induced death involves oxidative stress, the effect of adaptoquin on oxidative glutamate toxicity was examined. This form of toxicity is observed in primary cortical neurons from E17 rat embryos (2 DIV) and involves glutamate mediated inhibition of the amino acid cystine via its plasma membrane transporter. […] Accordingly, the optimal concentration of adaptoquin in protecting neurons was first determined and found to be about 1 micromolar. […] To determine the mechanism of adaptoquin, transcriptomic experiments were performed using non-protective and protective concentrations of drug harvesting RNA just prior to the time the cell's becoming insensitive to adaptoquin (16 hrs), as provided in FIG. 5C.
To probe the mechanism of adaptoquin-induced neuroprotection, the study moved its attention to a well established model of oxidative stress in neurons induced by glutamate. Like hemin induced toxicity, oxidative glutamate toxicity is abrogated by forced expression of GPX4 (Alim et al., unpublished observations). However, oxidative glutamate toxicity has a much longer window before cells are committed to die (eighteen hours), facilitating analysis of primary events involved in cell death and protection. A detailed dose response and therapeutic window study was performed with adaptoquin in mouse cortical neurons exposed to glutamate or the glutamate analog, homocysteate. […] To probe the mechanism of this potent, delayed protection, a microarray transcriptomics study was performed using RNA from neuronal cultures that had been exposed to glutamate (or HCA) for 16 hours with vehicle, as well as non-protective (100 nM) and protective doses of adaptoquin (1 μM). Protective, but […] doses of adaptoquin reduced expression of a host of genes induced by oxidative stress including Tribbles homolog 3, methylene tetrahydrofolate reductase, the Xc-transporter, and stanniocalcin-2 hormone glycoprotein.

[1] = system: intracerebral hemorrhage (autologous blood infusion); experiment: Autologous blood infusion ICH in rats; assay type: in vivo
Protocol: FIGS. 4A-4N. Adaptoquin delivered post-injury reduces cell death and enhances functional recovery post injury in mice and rats. Adaptoquin's effects in mice are not associated with global shifts of iron out of the brain. FIG. 4A: Experimental design for schedule of delivery of adaptaquin post-ICH. 30 mg/kg was delivered post-injury and then daily for seven days during which behavioral analysis was done. Mice were sacrificed at day 7 for qPCR and Fluoro-jade staining. […] FIG. 4J: Protocol for adaptoquin treatment of rats with ICH. ICH is modeled by autologous blood infusion and not collagenase in these studies. Behavior is tracked by a single pellet reaching task out to 28 days, but the schedule of infusion is similar to what is used in mice-2 hrs post blood infusion and then daily out to seven days. Behavior is monitored before, from 9-11 days and from 25-28 days. […] FIG. 4L: Protocol for evaluating the total concentrations of iron and zinc in brain following ICH in vehicle and adaptoquin treated mice. FIGS. 4M, 4N: Pseudocolored sections of collagenase induced ICH in mice after 7 days. […] These studies are consistent with the notion that adaptoquin works by inhibiting a specific metalloenzyme rather than global movement of metal ions.
To determine whether adaptoquin could ameliorate outcomes using a distinct model of ICH in a distinct species, adaptoquin was tested it (30 mg/kg, intraperitoneal) in a model of autologous blood infusion in rats. Autologous blood infusion causes a narrower slit like lesion in the striatum than collagenase, but results in motor impairments out beyond 30 days. Adaptoquin (30 mg/kg) was administered two hours after autologous blood infusion and then daily for seven days.

HIF PHDs = experiment: ODD-luciferase reporter mice, in vivo bioluminescence imaging and tissue lysates; details: for ODD-luciferase activity in brain: in vivo bioluminescence imaging, intraperitoneal; for ODD-luciferase activity in lysates from different brain regions: normalized to total protein, luminometer
Description: FIGS. 3A-3G. Validation of adaptoquin as a novel HIF PHD inhibitor. […] Under steady state conditions, activity of HIF PHD2 with its co-substrate 2-oxoglutarate involves two peaks that represent non-hydroxylated and hydroxylated peptide. The hydroxylated peptide disappears in the presence of HIF PHD2 inhibition by adaptoquin. […] The reporter contains the ODD domain of HIF-1 which confers HIF PHD regulated stability on it. It is expressed in all cells of the body, but is destabilized in the absence of HIF PHD inhibition and stabilized in its presence. Quantitative measurements confirm stability of the ODD-luc in brain, kidney and liver (FIGS. 3D and 3E.).
To identify HIF PHD inhibitors suitable for testing in ICH, the experiment first sought to identify which of the known HIF PHD inhibitors could penetrate the blood brain barrier to inhibit HIF PHD activity in the CNS. To monitor HIF PHD activity dynamically, the experiment utilized mice that had previously been engineered to ubiquitously express the oxygen degradation domain (ODD) of HIF-1α fused to firefly luciferase. The ODD domain contains proline 402 and 564, which are hydroxylated by the HIF PHDs to degrade HIF-1 or the ODD-luciferase. Accordingly, these mice have been used previously to track HIF PHD activity in diverse organs in vivo using in vivo bioluminescence imaging.
To verify that the changes in light in the brain reflect parenchymal changes in ODD-luciferase levels rather than increases in changes in skin or dural ODD-luciferase, ODD-luciferase activity was measured normalized to total protein in lysates from distinct brain regions using a luminometer.

[2] = system: immortalized hippocampal neuroblasts (HT22 cells); experiment: Hemin-induced toxicity in hippocampal neuroblasts (MTT); assay type: cell-based
Description: FIGS. 1A-1L: Structurally diverse HIF PHD inhibitors stabilize HIF-1 and abrogate toxicity induced by hemin, a byproduct of blood breakdown, in cortical neurons hippocampal neuroblasts and striatal neuroblasts (not shown).
Secondary injury from ICH has been attributed to hemin, a breakdown product of hemoglobin (from lysed red blood cells). To investigate the mechanisms of hemin toxicity to neurons in vitro, this experiment exposed primary cortical neurons, immortalized hippocampal neuroblasts (HT22 cells), and immortalized striatal neuroblasts (Q7 cells) to hemin for 24 hours. As expected, a dose dependent loss in viability as measured by MTT reduction or LIVE/DEAD assay in all three cell types was observed. […] To examine whether iron-dependent HIF PHD enzymes can be modulated to protect neurons from hemin-induced toxicity, this experiment examined structurally diverse inhibitors of the HIF PHDs: desferoxamine, cyclopirox, and dihydroxybenzoic acid. […] To test this notion further using a chemical biological approach, the protective effects of cyclopirox, a HIF PHD inhibitor, and a cyclopirox analog with no PHD inhibitory activity but with similar metal binding affinity to cyclopirox were compared. As expected, only the cyclopirox analog with PHD inhibitory activity was neuroprotective. […]

SMILES: Oc1cccnc1NC(c1ccc(Cl)cc1)c1ccc2cccnc2c1O (stereo not drawn) [adaptoquin]
- Protection against oxidative death (primary cortical neurons; 0.1 micromolar (100 nM)): non-protective
- Protection against oxidative death (primary cortical neurons; 1 micromolar): complete protection
- Time after glutamate/homocysteate treatment at which the compound can still be added and protect (primary cortical neurons; 1 micromolar): up to 16 hours
- Protection against oxidative death (primary cortical neurons; 1 micromolar, listed as adaptaquin): protection is significant
- Optimal concentration in protecting neurons (primary cortical neurons; oxidative glutamate toxicity): about 1 micromolar
- Body weight ([1]; 30 mg/kg i.p.): no significant changes
- Glucose levels ([1]; 30 mg/kg i.p.): no significant changes
- Temperature ([1]; 30 mg/kg i.p.): no significant changes
- Single pellet reaching task (percent correct) ([1]; 30 mg/kg i.p. 2 h after blood infusion then daily for seven days, later time points): significant improvements in percent correct; also recorded: improves single pellet reaching
- Message levels of p21 waf1/cip1 in brain (HIF PHDs; adaptoquin 30 mg/kg): increased message levels of p21 waf1/cip1
- ODD-luciferase activity in brain (HIF PHDs; adaptoquin 30 mg/kg): significantly increase ODD-luciferase levels and activity
- ODD-luciferase activity in brain (HIF PHDs; adaptoquin 30 mg/kg, listed as Adaptoquin): inhibits the HIF PHDs in brain in a dose dependent fashion
- ODD-luciferase activity in lysates from different brain regions (HIF PHDs): An increase in activity
- ODD-luciferase activity in lysates from different brain regions (HIF PHDs; listed as Adaptoquin): dose dependent increases throughout the brain
- Hemin-induced death / protection after HIF-1α or HIF-2α reduction (shRNA) [2]: prevents hemin induced death independent of HIF-1 and HIF-2
